# pIC50: −log10 of the molar value.
# Assays:
# flt-3 = biological target: T1, flt-3 (Homo sapiens, UniProt P36888); assay: flt-3 Luciferase-Coupled Chemiluminescent Kinase assay (LCCA); assay type: biochemical
# T1 construct: baculovirus expressed human Flt-3 kinase domain R571-S993
# T1 sequence (P36888 571-993): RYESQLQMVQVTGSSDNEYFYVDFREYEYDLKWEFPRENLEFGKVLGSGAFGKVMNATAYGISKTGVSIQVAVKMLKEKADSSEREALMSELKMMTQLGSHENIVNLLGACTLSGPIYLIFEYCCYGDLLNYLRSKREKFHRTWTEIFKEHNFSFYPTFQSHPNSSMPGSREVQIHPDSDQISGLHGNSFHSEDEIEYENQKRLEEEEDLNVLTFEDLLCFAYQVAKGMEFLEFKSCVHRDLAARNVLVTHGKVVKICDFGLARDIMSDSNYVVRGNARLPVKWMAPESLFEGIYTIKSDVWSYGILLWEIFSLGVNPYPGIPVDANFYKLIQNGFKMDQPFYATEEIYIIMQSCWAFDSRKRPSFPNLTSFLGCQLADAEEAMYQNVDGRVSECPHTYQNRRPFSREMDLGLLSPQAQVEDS
# Outline: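 Baculovirus-expressed human Flt-3 kinase domain (R571-S993, 5 nM) was reacted with 5 μM ATP and 3 μM poly-EY in Tris pH 7.5 buffer with MgCl2/MnCl2 for 3 h at ambient temperature. Remaining ATP was read by luciferase-luciferin chemiluminescence, with ATP consumption standardized to 25-45%, for IC50.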
# c-Kit = c-Kit (Homo sapiens, UniProt P10721); assay: c-Kit biochemical assay (AlphaScreen)
# Outline: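 Kinase, compound, ATP and biotinylated poly(Glu,Tyr) 4:1 reacted 1 hr at ambient temperature; quenched with EDTA buffer (pH 7.4) containing streptavidin donor and anti-phosphotyrosine PY100 acceptor beads, incubated 16 hr, then AlphaScreen signal read to give IC50.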
# EGFR = EGFR (Homo sapiens, UniProt P00533); assay: EGFR kinase inhibition assay; assay type: biochemical
# EphB4 = biological target: T2, EphB4 (Homo sapiens, UniProt P54760); assay: EphB4 kinase inhibition assay; assay type: biochemical
# T2 sequence (P54760 16-987): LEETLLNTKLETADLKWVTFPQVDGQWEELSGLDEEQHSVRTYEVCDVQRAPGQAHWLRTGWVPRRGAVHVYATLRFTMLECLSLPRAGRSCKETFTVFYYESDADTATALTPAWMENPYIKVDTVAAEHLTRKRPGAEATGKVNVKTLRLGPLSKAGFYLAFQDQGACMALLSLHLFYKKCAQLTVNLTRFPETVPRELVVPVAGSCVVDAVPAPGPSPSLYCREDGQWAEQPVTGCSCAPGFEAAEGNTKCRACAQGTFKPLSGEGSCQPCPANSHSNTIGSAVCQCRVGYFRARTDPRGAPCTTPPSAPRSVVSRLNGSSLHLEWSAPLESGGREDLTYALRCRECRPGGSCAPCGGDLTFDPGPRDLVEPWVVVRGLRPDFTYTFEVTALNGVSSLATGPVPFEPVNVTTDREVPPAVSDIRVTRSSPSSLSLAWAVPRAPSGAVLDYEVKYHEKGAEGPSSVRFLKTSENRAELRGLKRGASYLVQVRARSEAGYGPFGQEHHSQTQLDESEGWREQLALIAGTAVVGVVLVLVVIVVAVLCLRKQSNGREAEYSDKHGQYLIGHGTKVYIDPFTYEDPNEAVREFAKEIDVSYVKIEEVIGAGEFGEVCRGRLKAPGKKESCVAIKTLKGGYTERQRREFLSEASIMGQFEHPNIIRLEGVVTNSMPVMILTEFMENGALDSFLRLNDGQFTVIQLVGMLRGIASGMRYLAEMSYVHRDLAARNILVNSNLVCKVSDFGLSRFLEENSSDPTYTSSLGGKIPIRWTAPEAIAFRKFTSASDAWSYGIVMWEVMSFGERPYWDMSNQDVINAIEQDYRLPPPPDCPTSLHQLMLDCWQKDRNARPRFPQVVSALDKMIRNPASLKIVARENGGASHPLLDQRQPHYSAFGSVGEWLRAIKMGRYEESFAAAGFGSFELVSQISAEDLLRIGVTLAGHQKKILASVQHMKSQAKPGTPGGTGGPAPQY
# Outline: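 ATP near each kinase's KM; 10-point dose-response fitted to a four-parameter equation for IC50. Formats: γ33P-ATP transfer to plate-coated substrate (1.5-2.5 h, ambient, scintillation), luciferase-coupled ATP-consumption read-out (2-4 h, 25-45% ATP consumed), or AlphaScreen with biotinylated poly(Glu,Tyr) 4:1 (1 h).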
# c-Kit, sequence (P10721 26-976): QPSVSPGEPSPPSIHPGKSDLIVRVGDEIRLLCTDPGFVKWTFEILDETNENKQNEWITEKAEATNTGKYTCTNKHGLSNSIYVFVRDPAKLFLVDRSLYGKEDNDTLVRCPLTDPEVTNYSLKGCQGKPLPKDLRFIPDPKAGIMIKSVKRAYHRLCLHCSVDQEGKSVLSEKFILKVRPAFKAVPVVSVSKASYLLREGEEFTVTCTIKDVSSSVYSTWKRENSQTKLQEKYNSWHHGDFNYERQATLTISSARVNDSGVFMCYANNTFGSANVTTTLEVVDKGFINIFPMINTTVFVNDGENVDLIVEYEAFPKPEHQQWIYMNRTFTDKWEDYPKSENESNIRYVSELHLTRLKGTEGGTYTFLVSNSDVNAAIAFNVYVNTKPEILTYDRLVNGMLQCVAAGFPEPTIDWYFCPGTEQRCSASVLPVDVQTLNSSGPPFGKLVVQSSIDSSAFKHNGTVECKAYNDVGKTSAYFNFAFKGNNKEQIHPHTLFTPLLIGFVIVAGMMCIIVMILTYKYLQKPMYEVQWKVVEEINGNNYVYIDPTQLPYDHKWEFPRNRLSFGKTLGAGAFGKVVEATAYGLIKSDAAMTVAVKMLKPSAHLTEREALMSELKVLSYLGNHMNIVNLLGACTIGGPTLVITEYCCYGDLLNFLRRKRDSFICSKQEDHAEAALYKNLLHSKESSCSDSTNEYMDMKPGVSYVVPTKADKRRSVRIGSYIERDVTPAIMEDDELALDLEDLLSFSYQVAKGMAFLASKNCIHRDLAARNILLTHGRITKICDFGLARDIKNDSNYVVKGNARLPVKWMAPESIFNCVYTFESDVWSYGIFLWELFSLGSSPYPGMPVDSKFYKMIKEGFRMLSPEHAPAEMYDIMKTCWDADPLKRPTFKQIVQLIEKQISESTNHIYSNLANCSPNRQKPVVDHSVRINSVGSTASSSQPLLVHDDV
# EGFR, sequence (P00533 25-1210, species assumed): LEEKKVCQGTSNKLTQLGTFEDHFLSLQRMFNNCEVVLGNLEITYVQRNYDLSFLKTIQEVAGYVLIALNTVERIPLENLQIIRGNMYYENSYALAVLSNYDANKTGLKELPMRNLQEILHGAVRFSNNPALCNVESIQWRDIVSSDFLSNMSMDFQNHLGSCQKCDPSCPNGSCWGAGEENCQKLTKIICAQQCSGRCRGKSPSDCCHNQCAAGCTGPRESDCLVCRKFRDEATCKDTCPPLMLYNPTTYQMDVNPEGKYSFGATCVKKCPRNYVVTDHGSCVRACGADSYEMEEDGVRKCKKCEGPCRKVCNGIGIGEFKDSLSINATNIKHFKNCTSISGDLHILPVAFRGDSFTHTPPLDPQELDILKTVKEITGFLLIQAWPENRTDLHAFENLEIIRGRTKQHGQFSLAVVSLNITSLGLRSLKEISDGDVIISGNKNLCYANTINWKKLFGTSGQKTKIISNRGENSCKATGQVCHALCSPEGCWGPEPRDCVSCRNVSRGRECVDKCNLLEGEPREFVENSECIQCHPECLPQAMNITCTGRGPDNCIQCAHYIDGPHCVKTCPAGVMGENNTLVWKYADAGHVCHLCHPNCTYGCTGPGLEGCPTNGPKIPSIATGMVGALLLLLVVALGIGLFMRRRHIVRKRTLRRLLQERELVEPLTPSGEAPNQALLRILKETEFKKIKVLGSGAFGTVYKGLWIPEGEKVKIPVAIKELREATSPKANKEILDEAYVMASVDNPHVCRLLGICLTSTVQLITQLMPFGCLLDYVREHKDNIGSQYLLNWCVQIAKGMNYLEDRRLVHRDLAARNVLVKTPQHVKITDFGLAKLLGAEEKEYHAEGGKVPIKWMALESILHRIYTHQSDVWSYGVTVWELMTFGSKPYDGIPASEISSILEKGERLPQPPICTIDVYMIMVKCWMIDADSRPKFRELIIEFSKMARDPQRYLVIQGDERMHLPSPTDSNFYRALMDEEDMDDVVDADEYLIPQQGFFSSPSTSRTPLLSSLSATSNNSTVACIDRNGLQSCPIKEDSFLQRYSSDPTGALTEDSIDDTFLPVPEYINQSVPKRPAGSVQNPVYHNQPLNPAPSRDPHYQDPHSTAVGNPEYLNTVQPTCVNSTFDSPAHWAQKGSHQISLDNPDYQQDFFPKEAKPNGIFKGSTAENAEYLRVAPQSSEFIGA
pIC50 (flt-3),pIC50 (c-Kit),pIC50 (EGFR),pIC50 (EphB4),Structure (SMILES)
> 7.30,6.30 to 7.30,< 5.30,< 5.30,"COc1cc(/C=C/c2cc(/C=C/c3ccc(F)cc3)n[nH]2)ccc1O [Entry 44, 4-((E)-2-{3-[(E)-2-(4-fluorophenyl)ethenyl]-1H-pyrazol-5-yl}ethenyl)-2-(methyloxy)phenol]"
6.30 to 7.30,6.30 to 7.30,< 5.30,< 5.30,"Oc1ccc(/C=C/c2cc(-c3cc4ccccc4o3)n[nH]2)cc1 [Entry 45, 4-{(E)-2-[3-(1-benzofuran-2-yl)-1H-pyrazol-5-yl]ethenyl}phenol]"
< 5.30,6.30 to 7.30,< 5.30,5.30 to 6.30,"CN1CCN(c2ccc(-c3cc(-c4ccc(NC(=O)C(=O)NCCc5ccccc5)cc4)[nH]n3)cc2)CC1 [Entry 46, N-(4-{3-[4-(4-methylpiperazin-1-yl)phenyl]-1H-pyrazol-5-yl}phenyl)-N′-(2-phenylethyl)ethanediamide]"
> 7.30,6.30 to 7.30,< 5.30,5.30 to 6.30,"Oc1ccc(/C=C/c2cc(-c3nc4ccccc4[nH]3)n[nH]2)cc1 [Entry 47, 4-{(E)-2-[3-(1H-benzimidazol-2-yl)-1H-pyrazol-5-yl]ethenyl}phenol]"
> 7.30,6.30 to 7.30,< 5.30,< 5.30,"COc1cc(/C=C/c2cc(/C=C/c3ccc(Cl)cc3)n[nH]2)ccc1O [Entry 48, 4-((E)-2-{3-[(E)-2-(4-chlorophenyl)ethenyl]-1H-pyrazol-5-yl}ethenyl)-2-(methyloxy)phenol]"
6.30 to 7.30,6.30 to 7.30,< 5.30,< 5.30,"Oc1ccc(/C=C/c2cc(-c3cc4ccccc4s3)n[nH]2)cc1 [Entry 49, 4-{(E)-2-[3-(1-benzothien-2-yl)-1H-pyrazol-5-yl]ethenyl}phenol]"
6.30 to 7.30,6.30 to 7.30,< 5.30,< 5.30,"O=C(Nc1ccc(-c2cc(-c3ccccc3)n[nH]2)cc1)Nc1ccc(Cl)c(C(F)(F)F)c1 [Entry 50, N-[4-chloro-3-(trifluoromethyl)phenyl]-N′-[4-(3-phenyl-1H-pyrazol-5-yl)phenyl]urea]"
> 7.30,6.30 to 7.30,< 5.30,< 5.30,"CN1CCN(c2ccc(-c3cc(/C=C/c4ccc(O)cc4)[nH]n3)cc2)CC1 [Entry 51, 4-((E)-2-{3-[4-(4-methylpiperazin-1-yl)phenyl]-1H-pyrazol-5-yl}ethenyl)phenol]"
6.30 to 7.30,6.30 to 7.30,< 5.30,< 5.30,"Cc1ccc(F)cc1NC(=O)Nc1ccc(-c2cc(-c3ccc(N4CCN(C)CC4)cc3)[nH]n2)cc1 [Entry 53, N-(5-fluoro-2-methylphenyl)-N′-(4-{5-[4-(4-methylpiperazin-1-yl)phenyl]-1H-pyrazol-3-yl}phenyl)urea]"
> 7.30,6.30 to 7.30,< 5.30,< 5.30,"Oc1ccc(/C=C/c2cc(-c3ccccc3)n[nH]2)cc1 [Entry 54, 4-[(E)-2-(3-phenyl-1H-pyrazol-5-yl)ethenyl]phenol]"
6.30 to 7.30,6.30 to 7.30,< 5.30,< 5.30,"COc1cc(/C=C/c2cc(-c3ccccc3)[nH]n2)ccc1O [Entry 55, 2-(methyloxy)-4-[(E)-2-(5-phenyl-1H-pyrazol-3-yl)ethenyl]phenol]"
6.30 to 7.30,6.30 to 7.30,< 5.30,< 5.30,"Oc1ccc(/C=C/c2cc(-c3ccc4ccccc4c3)[nH]n2)cc1 [Entry 56, 4-[(E)-2-(5-naphthalen-2-yl-1H-pyrazol-3-yl)ethenyl]phenol]"
6.30 to 7.30,6.30 to 7.30,< 5.30,< 5.30,"Oc1ccc(/C=C/c2cc(-c3ccccc3F)[nH]n2)cc1 [Entry 57, 4-{(E)-2-[5-(2-fluorophenyl)-1H-pyrazol-3-yl]ethenyl}phenol]"
6.30 to 7.30,6.30 to 7.30,< 5.30,< 5.30,"CN1CCN(c2cccc(-c3cc(/C=C/c4ccc(O)cc4)[nH]n3)c2)CC1 [Entry 58, 4-((E)-2-{3-[3-(4-methylpiperazin-1-yl)phenyl]-1H-pyrazol-5-yl}ethenyl)phenol]"
> 7.30,6.30 to 7.30,< 5.30,< 5.30,"COc1cc(/C=C/c2cc(/C=C/c3ccc(F)cc3F)n[nH]2)ccc1O [Entry 59, 4-((E)-2-{3-[(E)-2-(2,4-difluorophenyl)ethenyl]-1H-pyrazol-5-yl}ethenyl)-2-(methyloxy)phenol]"
> 7.30,6.30 to 7.30,< 5.30,< 5.30,"Oc1ccc(/C=C/c2cc(-c3ccc(F)cc3)[nH]n2)cc1 [Entry 60, 4-{(E)-2-[5-(4-fluorophenyl)-1H-pyrazol-3-yl]ethenyl}phenol]"
6.30 to 7.30,5.30 to 6.30,< 5.30,< 5.30,"Oc1ccc(/C=C/c2cc(-c3ccc(Cl)cc3)n[nH]2)cc1 [Entry 61, 4-{(E)-2-[3-(4-chlorophenyl)-1H-pyrazol-5-yl]ethenyl}phenol]"
5.30 to 6.30,5.30 to 6.30,< 5.30,< 5.30,"O=C(Nc1ccccc1)Nc1ccc(-c2cc(-c3ccccc3)n[nH]2)cc1 [Entry 76, N-phenyl-N′-[4-(3-phenyl-1H-pyrazol-5-yl)phenyl]urea]"

# From patent US8710038B2, “Pyrazole kinase modulators and methods of use” (Exelixis, Inc., priority 2004, dated 2014)
